Experimental data published in PubChem BioAssay AID248 (DTP/NCI, 2004).
“And” between values parts separate entries of the source, which are not always exact repeats. Equal values may be shown once. Inconclusive results and toxic doses are left out. Cut-off read from the data, not from the text of the source: active = T/C of 150% or more; inactive = T/C below 125%.

System: L1210 leukemia ip in BDF1 mice, survival T/C
Experiment: NCI In Vivo Anticancer Drug Screen. Data for tumor model L1210 Leukemia (intraperitoneal) in B6D2F1 (BDF1) mice
Conditions: higher = longer survival
Method in brief: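 Value reflects the ratio of survival in compound-treated mice to survival in vehicle-treated controls, with both groups carrying the same transplanted tumor.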

Measured: T/C

Nc1nc(=O)n(C2OC(CO)C(O)C2O)cc1F (stereo not drawn)
inactive: endpoint: mean survival time, dose: 0.02 mg/kg/injection, schedule: Q#A X020 (ip), vehicle: saline 104 % of control | endpoint: mean survival time, dose: 0.04 mg/kg/injection, schedule: Q#A X020 (ip), vehicle: saline 109 % of control | endpoint: mean survival time, dose: 0.05 mg/kg/injection, schedule: Q01DX010 (ip), vehicle: saline 98 % of control | endpoint: mean survival time, dose: 0.09 mg/kg/injection, schedule: Q01DX010 (ip), vehicle: saline 102 % of control | endpoint: mean survival time, dose: 0.09 mg/kg/injection, schedule: Q#A X020 (ip), vehicle: saline 118 % of control | endpoint: mean survival time, dose: 0.16 mg/kg/injection, schedule: Q03DX003 (ip), vehicle: saline 108 % of control | endpoint: mean survival time, dose: 0.19 mg/kg/injection, schedule: Q01DX010 (ip), vehicle: saline 118 % of control | endpoint: mean survival time, dose: 0.31 mg/kg/injection, schedule: Q03DX003 (ip), vehicle: saline 108 % of control | endpoint: mean survival time, dose: 0.38 mg/kg/injection, schedule: Q01DX010 (im), vehicle: saline 114 % of control | endpoint: mean survival time, dose: 0.38 mg/kg/injection, schedule: Q01DX010 (ip), vehicle: saline 110 % of control | endpoint: mean survival time, dose: 0.38 mg/kg/injection, schedule: Q01DX010 (sc), vehicle: saline 112 % of control | endpoint: mean survival time, dose: 0.63 mg/kg/injection, schedule: Q03DX003 (ip), vehicle: saline 122 % of control | endpoint: mean survival time, dose: 0.75 mg/kg/injection, schedule: Q01DX010 (im), vehicle: saline 120 % of control | endpoint: mean survival time, dose: 1.25 mg/kg/injection, schedule: Q03DX003 (ip), vehicle: saline 122 % of control | endpoint: mean survival time, dose: 1.56 mg/kg/injection, schedule: Q01DX010 (oral), vehicle: saline 106 % of control | endpoint: mean survival time, dose: 2.5 mg/kg/injection, schedule: Q01DX001 (ip), vehicle: saline 120 % of control | endpoint: mean survival time, dose: 2.5 mg/kg/injection, schedule: Q07DX002 (ip), vehicle: saline 111 % of control | endpoint: mean survival time, dose: 3.0 mg/kg/injection, schedule: Q01DX006 (iv), vehicle: saline 124 % of control | endpoint: mean survival time, dose: 3.13 mg/kg/injection, schedule: Q01DX010 (oral), vehicle: saline 112 % of control | endpoint: mean survival time, dose: 5.0 mg/kg/injection, schedule: Q01DX001 (ip), vehicle: saline 122 % of control | endpoint: mean survival time, dose: 6.25 mg/kg/injection, schedule: Q01DX010 (oral), vehicle: saline 118 % of control | endpoint: mean survival time, dose: 10.0 mg/kg/injection, schedule: Q01DX001 (ip), vehicle: saline 124 % of control | endpoint: mean survival time, dose: 20.0 mg/kg/injection, schedule: Q01DX001 (ip), vehicle: saline 118 % of control | endpoint: mean survival time, dose: 24.0 mg/kg/injection, schedule: Q#A X020 (ip), vehicle: saline 120 % of control | endpoint: mean survival time, dose: 40.0 mg/kg/injection, schedule: Q01DX001 (ip), vehicle: saline 122 % of control | endpoint: mean survival time, dose: 48.0 mg/kg/injection, schedule: Q01DX010 (ip), vehicle: saline 116 % of control | endpoint: mean survival time, dose: 48.0 mg/kg/injection, schedule: Q#A X020 (ip), vehicle: saline 101 % of control | endpoint: mean survival time, dose: 50.0 mg/kg/injection, schedule: Q01DX001 (ip), vehicle: saline 124 % of control | endpoint: mean survival time, dose: 96.0 mg/kg/injection, schedule: Q01DX010 (ip), vehicle: saline 112 % of control | endpoint: mean survival time, dose: 96.0 mg/kg/injection, schedule: Q#A X020 (ip), vehicle: saline 103 % of control | endpoint: mean survival time, dose: 100.0 mg/kg/injection, schedule: Q01DX001 (ip), vehicle: saline 118 % of control | endpoint: mean survival time, dose: 128.0 mg/kg/injection, schedule: Q01DX001 (oral), vehicle: saline 110 % of control | endpoint: mean survival time, dose: 192.0 mg/kg/injection, schedule: Q01DX006 (iv), vehicle: saline 95 % of control | endpoint: mean survival time, dose: 192.0 mg/kg/injection, schedule: Q01DX010 (im), vehicle: saline 110 % of control | endpoint: mean survival time, dose: 192.0 mg/kg/injection, schedule: Q01DX010 (ip), vehicle: saline 108 % of control | endpoint: mean survival time, dose: 192.0 mg/kg/injection, schedule: Q01DX010 (sc), vehicle: saline 119 % of control | endpoint: mean survival time, dose: 200.0 mg/kg/injection, schedule: Q01DX001 (ip), vehicle: saline 119 % of control | endpoint: mean survival time, dose: 200.0 mg/kg/injection, schedule: Q01DX009 (ip), vehicle: saline 93 % of control | endpoint: mean survival time, dose: 256.0 mg/kg/injection, schedule: Q01DX001 (oral), vehicle: saline 117 % of control
active: endpoint: mean survival time, dose: 0.37 mg/kg/injection, schedule: Q#A X020 (ip), vehicle: saline 169 % of control | endpoint: mean survival time, dose: 0.75 mg/kg/injection, schedule: Q#A X020 (ip), vehicle: saline 211 % of control | endpoint: mean survival time, dose: 1.5 mg/kg/injection, schedule: Q01DX010 (ip), vehicle: saline 177 % of control | endpoint: mean survival time, dose: 1.5 mg/kg/injection, schedule: Q#A X020 (ip), vehicle: saline 217 % of control | endpoint: mean survival time, dose: 2.5 mg/kg/injection, schedule: Q03DX004 (ip), vehicle: saline 157 % of control | endpoint: mean survival time, dose: 3.0 mg/kg/injection, schedule: Q01DX010 (im), vehicle: saline 159 % of control and 166 % of control | endpoint: mean survival time, dose: 3.0 mg/kg/injection, schedule: Q01DX010 (ip), vehicle: saline 166 % of control | endpoint: mean survival time, dose: 3.0 mg/kg/injection, schedule: Q01DX010 (sc), vehicle: saline 152 % of control and 162 % of control | endpoint: mean survival time, dose: 3.12 mg/kg/injection, schedule: Q01DX015 (ip), vehicle: saline 195 % of control | endpoint: mean survival time, dose: 4.0 mg/kg/injection, schedule: Q01DX009 (ip), vehicle: saline 173 % of control | endpoint: mean survival time, dose: 5.0 mg/kg/injection, schedule: Q03DX004 (ip), vehicle: saline 157 % of control | endpoint: mean survival time, dose: 6.0 mg/kg/injection, schedule: Q01DX010 (im), vehicle: saline 176 % of control | endpoint: mean survival time, dose: 6.0 mg/kg/injection, schedule: Q01DX010 (ip), vehicle: saline 183 % of control | endpoint: mean survival time, dose: 6.0 mg/kg/injection, schedule: Q01DX010 (sc), vehicle: saline 178 % of control | endpoint: mean survival time, dose: 8.0 mg/kg/injection, schedule: Q01DX009 (ip), vehicle: saline 216 % of control | endpoint: mean survival time, dose: 10.0 mg/kg/injection, schedule: Q03DX004 (ip), vehicle: saline 160 % of control | endpoint: mean survival time, dose: 10.0 mg/kg/injection, schedule: Q03DX Z (ip), vehicle: saline 166 % of control | endpoint: mean survival time, dose: 12.0 mg/kg/injection, schedule: Q01DX006 (iv), vehicle: saline 157 % of control | endpoint: mean survival time, dose: 12.0 mg/kg/injection, schedule: Q01DX010 (im), vehicle: saline 217 % of control | endpoint: mean survival time, dose: 12.0 mg/kg/injection, schedule: Q01DX010 (ip), vehicle: saline 197 % of control | endpoint: mean survival time, dose: 12.0 mg/kg/injection, schedule: Q01DX010 (sc), vehicle: saline 203 % of control | endpoint: mean survival time, dose: 12.0 mg/kg/injection, schedule: Q#A X020 (ip), vehicle: saline 201 % of control | endpoint: mean survival time, dose: 12.5 mg/kg/injection, schedule: Q01DX010 (oral), vehicle: saline 153 % of control | endpoint: mean survival time, dose: 20.0 mg/kg/injection, schedule: Q03DX Z (ip), vehicle: saline 174 % of control | endpoint: mean survival time, dose: 24.0 mg/kg/injection, schedule: Q01DX006 (iv), vehicle: saline 160 % of control and 191 % of control | endpoint: mean survival time, dose: 24.0 mg/kg/injection, schedule: Q01DX010 (ip), vehicle: saline 191 % of control | endpoint: mean survival time, dose: 25.0 mg/kg/injection, schedule: Q01DX005 (ip), vehicle: saline 150 % of control and 160 % of control | endpoint: mean survival time, dose: 25.0 mg/kg/injection, schedule: Q01DX010 (oral), vehicle: saline 174 % of control | endpoint: mean survival time, dose: 40.0 mg/kg/injection, schedule: Q01DX005 (ip), vehicle: saline 174 % of control | endpoint: mean survival time, dose: 40.0 mg/kg/injection, schedule: Q03DX Z (ip), vehicle: saline 198 % of control | endpoint: mean survival time, dose: 48.0 mg/kg/injection, schedule: Q01DX006 (iv), vehicle: saline 180 % of control | endpoint: mean survival time, dose: 50.0 mg/kg/injection, schedule: Q01DX010 (oral), vehicle: saline 186 % of control | endpoint: mean survival time, dose: 64.0 mg/kg/injection, schedule: Q01DX009 (oral), vehicle: saline 168 % of control | endpoint: mean survival time, dose: 80.0 mg/kg/injection, schedule: Q01DX005 (ip), vehicle: saline 168 % of control | endpoint: mean survival time, dose: 80.0 mg/kg/injection, schedule: Q03DX004 (ip), vehicle: saline 180 % of control | endpoint: mean survival time, dose: 80.0 mg/kg/injection, schedule: Q03DX Z (ip), vehicle: saline 201 % of control | endpoint: mean survival time, dose: 96.0 mg/kg/injection, schedule: Q01DX006 (iv), vehicle: saline 177 % of control | endpoint: mean survival time, dose: 100.0 mg/kg/injection, schedule: Q01DX009 (ip), vehicle: saline 183 % of control | endpoint: mean survival time, dose: 100.0 mg/kg/injection, schedule: Q01DX010 (oral), vehicle: saline 157 % of control | endpoint: mean survival time, dose: 128.0 mg/kg/injection, schedule: Q01DX009 (oral), vehicle: saline 181 % of control | endpoint: mean survival time, dose: 160.0 mg/kg/injection, schedule: Q01DX005 (ip), vehicle: saline 168 % of control | endpoint: mean survival time, dose: 160.0 mg/kg/injection, schedule: Q03DX004 (ip), vehicle: saline 198 % of control | endpoint: mean survival time, dose: 160.0 mg/kg/injection, schedule: Q07DX002 (ip), vehicle: saline 154 % of control | endpoint: mean survival time, dose: 160.0 mg/kg/injection, schedule: Q07DX Z (ip), vehicle: saline 152 % of control | endpoint: mean survival time, dose: 320.0 mg/kg/injection, schedule: Q07DX002 (ip), vehicle: saline 182 % of control | endpoint: median survival time, dose: 2.0 mg/kg/injection, schedule: Q01DX009 (ip), vehicle: saline with Tween-80 168 % of control | endpoint: median survival time, dose: 4.0 mg/kg/injection, schedule: Q01DX009 (ip), vehicle: saline with Tween-80 175 % of control | endpoint: median survival time, dose: 4.0 mg/kg/injection, schedule: Q01DX009 (ip), vehicle: saline 160 % of control and 175 % of control | endpoint: median survival time, dose: 8.0 mg/kg/injection, schedule: Q01DX009 (ip), vehicle: saline with Tween-80 183 % of control | endpoint: median survival time, dose: 8.0 mg/kg/injection, schedule: Q01DX009 (ip), vehicle: saline 170 % of control and 187 % of control | endpoint: median survival time, dose: 16.0 mg/kg/injection, schedule: Q01DX009 (ip), vehicle: saline with Tween-80 186 % of control | endpoint: median survival time, dose: 16.0 mg/kg/injection, schedule: Q01DX009 (ip), vehicle: saline 190 % of control | endpoint: median survival time, dose: 32.0 mg/kg/injection, schedule: Q01DX009 (ip), vehicle: saline with Tween-80 202 % of control | endpoint: median survival time, dose: 32.0 mg/kg/injection, schedule: Q01DX009 (ip), vehicle: saline 160 % of control
